Laboratory results taken from ChEMBL document CHEMBL1201862, “PubChem BioAssay data set” (2004).
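Step 1: Grow cells in 96-well plates. Step 2: Expose to compound for 48 hours at 5 concentrations. Step 3: Interpolate endpoints linearly; if unreached, use highest concentration. GI50 = concentration required for 50% inhibition of growth.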 The source made the active and inactive calls. Cut-off read from the data, not from the text of the source: active = GI50 up to about 1.1 µM and inactive = higher.

Experiments:
Test in all cases: NCI tumour cell line growth inhibition, 48 h
A498 = tested on: A498
ACHN = tested on: ACHN
CAKI-1 = tested on: CAKI-1
HCC 2998 = tested on: HCC 2998
HOP-62 = tested on: HOP-62
LOX IMVI = tested on: LOX IMVI
Malme-3M = tested on: Malme-3M
OVCAR-3 = tested on: OVCAR-3
RXF 393 = tested on: RXF 393
SF-268 = tested on: SF-268
SF-295 = tested on: SF-295
SK-MEL-28 = tested on: SK-MEL-28
SK-MEL-5 = tested on: SK-MEL-5
SN12C = tested on: SN12C
SW-620 = tested on: SW-620
U-251 = tested on: U-251
HOP-92 = tested on: HOP-92

Measured: GI50

CC(C)(C)C(=O)OC12/C(=N/O)CCCCCC1c1ccccc12 (stereo not drawn)
inactive: A498 16.9 µM | ACHN 17.9 µM | CAKI-1 11.9 µM | HCC 2998 > 100 µM | HOP-62 21.7 µM | LOX IMVI 14.3 µM | Malme-3M 21 µM | OVCAR-3 17.4 µM | RXF 393 19.5 µM | SF-268 16.4 µM | SF-295 15.6 µM | SK-MEL-28 18.5 µM | SK-MEL-5 17.8 µM | SN12C 19 µM | SW-620 17.6 µM | U-251 17.7 µM

Cc1nc(N)sc1C(=O)/C=C/c1ccc(/C=C/C(=O)c2sc(NC(=O)CCCCCCCCC(=O)Nc3nc(C)c(C(=O)/C=C/c4ccc(/C=C/C(=O)c5sc(N)nc5C)cc4)s3)nc2C)cc1
inactive: ACHN > 100 µM | CAKI-1 60.4 µM | HCC 2998 > 100 µM | HOP-62 > 100 µM | LOX IMVI > 100 µM | Malme-3M > 100 µM | OVCAR-3 62.8 µM | RXF 393 > 100 µM | SF-268 > 100 µM | SF-295 > 100 µM | SK-MEL-28 52.8 µM | SN12C > 100 µM | SW-620 > 100 µM | U-251 > 100 µM
active: HOP-92 < 0.01 µM

COc1ccc(N2C(=O)/C(=C/c3ccc(N(CCC#N)CCC#N)cc3C)N=C2/C=C\c2ccccc2)cc1
inactive: ACHN 18.6 µM | CAKI-1 29.2 µM | HOP-62 24.4 µM | HOP-92 > 100 µM | LOX IMVI 28.8 µM | Malme-3M 41.6 µM | OVCAR-3 > 100 µM | SF-268 22.6 µM | SF-295 35.5 µM | SK-MEL-28 31.4 µM | SK-MEL-5 31.9 µM | SN12C 4.35 µM | SW-620 33.2 µM | U-251 46.8 µM

COc1cc(C2(C)SCCCS2)c(I)c(OC)c1OC
inactive: A498 > 100 µM | ACHN > 100 µM | CAKI-1 > 100 µM | HCC 2998 > 100 µM | HOP-62 > 100 µM | HOP-92 > 100 µM | LOX IMVI > 100 µM | Malme-3M > 100 µM | OVCAR-3 > 100 µM | SF-268 > 100 µM | SF-295 > 100 µM | SK-MEL-28 > 100 µM | SK-MEL-5 > 100 µM | SN12C > 100 µM | SW-620 > 100 µM | U-251 > 100 µM

CC(=O)OC1C(CCl)OC(N=[N+]=[N-])C(OC(C)=O)C1OC(C)=O (stereo not drawn)
inactive: A498 > 100 µM | ACHN > 100 µM | CAKI-1 > 100 µM | HCC 2998 > 100 µM | HOP-62 > 100 µM | Malme-3M > 100 µM | OVCAR-3 > 100 µM | RXF 393 > 100 µM | SF-268 > 100 µM | SF-295 > 100 µM | SK-MEL-28 > 100 µM | SK-MEL-5 > 100 µM | SN12C > 100 µM | SW-620 > 100 µM | U-251 > 100 µM

O=C1CCN2C(=Nc3cccc4cccc2c34)N1
inactive: ACHN > 100 µM | HCC 2998 > 100 µM | HOP-62 > 100 µM | LOX IMVI > 100 µM | RXF 393 > 100 µM | SF-268 > 100 µM | SK-MEL-28 > 100 µM | SK-MEL-5 > 100 µM | SN12C > 100 µM | SW-620 > 100 µM | U-251 > 100 µM

CP(C)C.[Ag][I]
inactive: ACHN > 100 µM | CAKI-1 > 100 µM | HCC 2998 > 100 µM | HOP-62 > 100 µM | HOP-92 40.2 µM | LOX IMVI 25.5 µM | Malme-3M 39.6 µM | OVCAR-3 > 100 µM | RXF 393 > 100 µM | SF-268 > 100 µM | SF-295 > 100 µM | SK-MEL-28 61.9 µM | SK-MEL-5 15.4 µM | SN12C > 100 µM | SW-620 > 100 µM | U-251 > 100 µM

Cc1ccc(C2=Nc3ccccc3SC(c3cccc4c3OCO4)C2)cc1 (stereo not drawn)
inactive: A498 14.7 µM | ACHN 20.4 µM | CAKI-1 16.1 µM | HCC 2998 20.9 µM | HOP-62 33.1 µM | LOX IMVI 16.6 µM | Malme-3M 24.1 µM | OVCAR-3 14.8 µM | RXF 393 > 10 µM | SF-268 21.1 µM | SF-295 18.7 µM | SK-MEL-28 17.6 µM | SK-MEL-5 16.2 µM | SN12C 19.5 µM | SW-620 19.1 µM

CCOC(=O)C(NO)C(Sc1ccccc1)c1ccc(OC)cc1 (stereo not drawn)
inactive: ACHN 71.3 µM | HCC 2998 > 100 µM | HOP-62 88.3 µM | HOP-92 > 100 µM | LOX IMVI > 100 µM | Malme-3M > 100 µM | OVCAR-3 91 µM | RXF 393 23.9 µM | SF-268 > 100 µM | SF-295 > 100 µM | SK-MEL-28 > 100 µM | SK-MEL-5 30.7 µM | SN12C > 100 µM | SW-620 > 100 µM | U-251 > 100 µM
